Several values for one entry are separate records, joined by “and”; a condition that tells them apart may be missing. Equal entries are not always repeated. Toxic doses and inconclusive results are not listed. Rule as the data show it: active = T/C of 150% or more; inactive = T/C below 125%.
Tested on: L1210 leukemia ip in BDF1 mice, survival T/C
Experiment: NCI In Vivo Anticancer Drug Screen. Data for tumor model L1210 Leukemia (intraperitoneal) in B6D2F1 (BDF1) mice
Conditions: endpoint: mean survival time, higher = longer survival
Summary of the method: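 Antitumor effect is assessed in tumor-bearing animals. Survival in the compound arm is compared with a vehicle-dosed control arm and expressed as their quotient.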

[1] = dose: 100.0 mg/kg/injection, schedule: Q04DX003 (ip), vehicle: saline with Tween-80
[2] = dose: 200.0 mg/kg/injection, schedule: Q04DX003 (ip), vehicle: saline with Tween-80
[3] = dose: 200.0 mg/kg/injection, schedule: Q04DX002 (ip), vehicle: Klucel (hydroxypropylcellulose) (HPC)
[4] = dose: 400.0 mg/kg/injection, schedule: Q04DX002 (ip), vehicle: Klucel (hydroxypropylcellulose) (HPC)
[5] = dose: 50.0 mg/kg/injection, schedule: Q04DX002 (ip), vehicle: Klucel (hydroxypropylcellulose) (HPC)
[6] = dose: 100.0 mg/kg/injection, schedule: Q04DX002 (ip), vehicle: Klucel (hydroxypropylcellulose) (HPC)
[7] = dose: 100.0 mg/kg/injection, schedule: Q01DX009 (ip), vehicle: Klucel (hydroxypropylcellulose) (HPC)
[8] = dose: 200.0 mg/kg/injection, schedule: Q01DX009 (ip), vehicle: Klucel (hydroxypropylcellulose) (HPC)
[9] = dose: 400.0 mg/kg/injection, schedule: Q01DX009 (ip), vehicle: Klucel (hydroxypropylcellulose) (HPC)

Measured: T/C

CCCC1=Cc2cc3c(cc2C1N(C)C)OCO3 (stereo not drawn)
inactive: dose: 100.0 mg/kg/injection, schedule: Q01DX001 (ip), vehicle: Klucel (hydroxypropylcellulose) (HPC) 97 % of control | dose: 200.0 mg/kg/injection, schedule: Q01DX001 (ip), vehicle: Klucel (hydroxypropylcellulose) (HPC) 97 % of control

CCOC(=O)C(=CNc1ccccn1)C(=O)OCC
inactive: dose: 100.0 mg/kg/injection, schedule: Q01DX009 (ip), vehicle: saline with Tween-80 100 % of control | [1] 93 % of control | dose: 200.0 mg/kg/injection, schedule: Q01DX009 (ip), vehicle: saline with Tween-80 104 % of control | [2] 93 % of control | dose: 400.0 mg/kg/injection, schedule: Q01DX009 (ip), vehicle: saline with Tween-80 97 % of control | dose: 400.0 mg/kg/injection, schedule: Q04DX003 (ip), vehicle: saline with Tween-80 97 % of control

CCCCCCCCCCCCCCCCCCNC(=O)OCC
inactive: dose: 100.0 mg/kg/injection, schedule: Q04DX002 (sc), vehicle: olive oil, sesame oil, peanut oil 103 % of control | dose: 200.0 mg/kg/injection, schedule: Q04DX002 (sc), vehicle: olive oil, sesame oil, peanut oil 113 % of control | dose: 400.0 mg/kg/injection, schedule: Q04DX002 (sc), vehicle: olive oil, sesame oil, peanut oil 106 % of control

O=C(O)CO/N=C/c1ccccc1Cl
inactive: [3] 98 % of control | [4] 95 % of control

COc1ccc(C(C)(O)c2cc3ccccc3n2S(=O)(=O)c2ccccc2)cc1 (stereo not drawn)
inactive: [5] 102 % of control | [6] 95 % of control | [3] 95 % of control

CCOC(=O)C(N=Nc1ccccc1)C(C)=O (stereo not drawn)
inactive: dose: 12.5 mg/kg/injection, schedule: Q01DX009 (ip), vehicle: Klucel (hydroxypropylcellulose) (HPC) 100 % of control | dose: 25.0 mg/kg/injection, schedule: Q01DX009 (ip), vehicle: Klucel (hydroxypropylcellulose) (HPC) 97 % of control | dose: 50.0 mg/kg/injection, schedule: Q01DX009 (ip), vehicle: Klucel (hydroxypropylcellulose) (HPC) 94 % of control | dose: 100.0 mg/kg/injection, schedule: Q04DX003 (ip), vehicle: Klucel (hydroxypropylcellulose) (HPC) 103 % of control | dose: 200.0 mg/kg/injection, schedule: Q04DX003 (ip), vehicle: Klucel (hydroxypropylcellulose) (HPC) 100 % of control | dose: 400.0 mg/kg/injection, schedule: Q04DX003 (ip), vehicle: Klucel (hydroxypropylcellulose) (HPC) 88 % of control

Cc1nnnn1C12CC3CC(CC(C3)C1)C2
inactive: dose: 18.8 mg/kg/injection, schedule: Q01DX001 (ip), vehicle: saline 110 % of control | dose: 37.5 mg/kg/injection, schedule: Q01DX001 (ip), vehicle: saline 100 % of control | dose: 75.0 mg/kg/injection, schedule: Q01DX001 (ip), vehicle: saline 105 % of control

Cc1ccc(C)c(NC(=O)Nc2ncccn2)c1
inactive: [7] 102 % of control | [8] 92 % of control | [9] 97 % of control

CC(C)COC(=O)c1ccc(NC(=O)Nc2ccc(F)cc2)cc1
inactive: dose: 100.0 mg/kg/injection, schedule: Q01DX001 (ip), vehicle: carboxymethylcellulose (CMC) 99 % of control | dose: 100.0 mg/kg/injection, schedule: Q01DX009 (ip), vehicle: carboxymethylcellulose (CMC) 92 % of control and 97 % of control | dose: 100.0 mg/kg/injection, schedule: Q04DX002 (ip), vehicle: carboxymethylcellulose (CMC) 93 % of control and 103 % of control | dose: 100.0 mg/kg/injection, schedule: Q04DX003 (ip), vehicle: carboxymethylcellulose (CMC) 96 % of control | dose: 200.0 mg/kg/injection, schedule: Q01DX001 (ip), vehicle: carboxymethylcellulose (CMC) 87 % of control | dose: 200.0 mg/kg/injection, schedule: Q01DX009 (ip), vehicle: carboxymethylcellulose (CMC) 100 % of control and 90 % of control | dose: 200.0 mg/kg/injection, schedule: Q04DX002 (ip), vehicle: carboxymethylcellulose (CMC) 92 % of control and 91 % of control | dose: 200.0 mg/kg/injection, schedule: Q04DX003 (ip), vehicle: carboxymethylcellulose (CMC) 96 % of control | dose: 400.0 mg/kg/injection, schedule: Q01DX001 (ip), vehicle: carboxymethylcellulose (CMC) 96 % of control | dose: 400.0 mg/kg/injection, schedule: Q01DX009 (ip), vehicle: carboxymethylcellulose (CMC) 100 % of control | dose: 400.0 mg/kg/injection, schedule: Q04DX002 (ip), vehicle: carboxymethylcellulose (CMC) 100 % of control and 102 % of control | dose: 400.0 mg/kg/injection, schedule: Q04DX003 (ip), vehicle: carboxymethylcellulose (CMC) 95 % of control

CCCCN1C(=O)CCC1=O
inactive: dose: 100.0 mg/kg/injection, schedule: Q04DX003 (ip), vehicle: saline 110 % of control | dose: 200.0 mg/kg/injection, schedule: Q04DX003 (ip), vehicle: saline 103 % of control | dose: 400.0 mg/kg/injection, schedule: Q04DX003 (ip), vehicle: saline 110 % of control

CCCCOc1ccc(NC(=O)CCl)cc1
inactive: [1] 89 % of control

CC(=O)/C(=C(/C)OB(F)F)C(C)C
inactive: dose: 50.0 mg/kg/injection, schedule: Q01DX001 (ip), vehicle: saline 102 % of control | dose: 100.0 mg/kg/injection, schedule: Q01DX001 (ip), vehicle: saline 104 % of control | dose: 200.0 mg/kg/injection, schedule: Q01DX001 (ip), vehicle: saline 102 % of control

CSc1ncnc2c1ncn2C1OC(CCC(N)=O)C(O)C1O (stereo not drawn)
inactive: [5] 98 % of control | [6] 101 % of control and 103 % of control | [3] 95 % of control | [4] 95 % of control

CCCCCCCCCCCCCCCCCC(=O)N/N=C/c1ccc(N(C)C)cc1
inactive: [7] 93 % of control | [8] 94 % of control | [9] 98 % of control

CC(=O)NCc1ccc(N2C(N)=NC(N)=NC2(C)C)cc1
inactive: dose: 75.0 mg/kg/injection, schedule: Q01DX009 (ip), vehicle: saline 92 % of control | dose: 150.0 mg/kg/injection, schedule: Q01DX009 (ip), vehicle: saline 87 % of control | dose: 300.0 mg/kg/injection, schedule: Q01DX009 (ip), vehicle: saline 90 % of control

CC(=O)CC(C)(C)N
inactive: [1] 94 % of control | [2] 86 % of control

O=C1C=C2CCCC2CC1 (stereo not drawn)
inactive: dose: 75.0 mg/kg/injection, schedule: Q01DX001 (ip), vehicle: other 97 % of control | dose: 75.0 mg/kg/injection, schedule: Q04DX003 (ip), vehicle: other 93 % of control | dose: 150.0 mg/kg/injection, schedule: Q01DX001 (ip), vehicle: other 92 % of control | dose: 150.0 mg/kg/injection, schedule: Q04DX003 (ip), vehicle: other 98 % of control | dose: 300.0 mg/kg/injection, schedule: Q01DX001 (ip), vehicle: other 94 % of control | dose: 300.0 mg/kg/injection, schedule: Q04DX003 (ip), vehicle: other 92 % of control

CC1CCC(C(O)(C(=O)O)C2CCCCC2)CC1C (stereo not drawn)
inactive: dose: 75.0 mg/kg/injection, schedule: Q01DX001 (ip), vehicle: carboxymethylcellulose (CMC) 97 % of control | dose: 150.0 mg/kg/injection, schedule: Q01DX001 (ip), vehicle: carboxymethylcellulose (CMC) 105 % of control | dose: 300.0 mg/kg/injection, schedule: Q01DX001 (ip), vehicle: carboxymethylcellulose (CMC) 100 % of control

— PubChem BioAssay AID248 (DTP/NCI, 2004)
